From US20120189673A1, “POLYPEPTIDES AND USES THEREOF” (priority 2009, published 2012)

Columns and labels:
bacteria = settings: cited from earlier work
[1] = tested on: E. coli LPS shock in C57BL/6 mice; test: LPS model in vivo (LPS-induced shock): survival, cytokines, lungs; set-up: species or system mouse; settings: for overall (proinflammatory) cytokine release: 20 h after LPS injection, peptide 500 μg; for survival: E. coli LPS i.p., peptide 500 μg i.p. 30 minutes after, followed 7 days
Protocol: Histochemistry—For immunostaining, wound biopsies were fixed in 10% formalin, rehydrated and embedded in paraffin. Sections of 5 μm thickness were placed on poly-lysine coated glass slides, deparaffinized in xylene and rehydrated in graded alcohols. The slides were then treated with Dako antigen retrieval solution (Dako) for 40 min at 97° C., and incubated for 24 h at room temperature in a 1:50 dilution of polyclonal antibodies against TFPI (Sigma-Aldrich, in TBS with 1% BSA, 5% goat serum, 0.05% Tween 20). After three 20 min washes in TBS with 0.05% Tween 20, the sections were incubated with alkaline phosphatase conjugated secondary goat anti-rabbit IgG (Dako) diluted 1:1000 in the same buffer as the primary antibody and incubated for another 24 hours, followed by three 20 min washes. Sections were developed with Vulcan Fast Red chromogen (Biocare Medical, Concord, Calif.) and the slides were counterstained with Harris Hematoxylin (EM Science, Gibbstown, N.J.). For histological evaluation of lungs derived from the in vivo LPS-models in mice, tissues were embedded as above, sectioned and stained with hematoxylin and eosin by routine procedures (Histocenter, Gothenburg, Sweden).
LPS model in vivo—Male C57BL/6 mice (8-10 weeks, 22+/−5 g), were injected intraperitoneally with 18 mg E. coli 0111:B4 LPS (Sigma) per kg of body weight. Thirty minutes after LPS injection, 0.5 mg GGL27, GGL27(S), DSE25 or buffer alone was injected intraperitoneally into the mice. Survival and status was followed during seven days. For blood collection and histochemistry, mice were sacrificed 20 h after LPS challenge, and lungs were removed and fixed. These experiments were approved by the Laboratory Animal Ethics Committee of Malmo/Lund.
Cytokine assay—The cytokines IL-6, IL-10, MCP-1, INF-γ, and TNF-α were measured in plasma from mice subjected to LPS (with or without peptide treatment) using the Cytometric bead array; mouse inflammation kit (Becton Dickinson AB) according to the manufacturer's instructions.

[2] = tested on: Escherichia coli, Pseudomonas aeruginosa, Bacillus subtilis, Staphylococcus aureus, Candida albicans, Candida parapsilosis; test: Radial diffusion assay (RDA); assay type: cell-based; settings: peptide at 100 μM, 6 μl per well; 18-24 h at 37° C.
Protocol: Radial diffusion assay. Essentially as described earlier, bacteria were grown to mid-logarithmic phase in 10 ml of full-strength (3% w/v) trypticase soy broth (TSB) (Becton-Dickinson). The microorganisms were then washed once with 10 mM Tris, pH 7.4. Subsequently, 4×10^6 cfu were added to 15 ml of the underlay agarose gel, consisting of 0.03% (w/v) TSB, 1% (w/v) low electroendosmosis type (EEO) agarose (Sigma-Aldrich) and 0.02% (v/v) Tween 20 (Sigma-Aldrich). The underlay was poured into a Ø 144 mm petri dish. After agarose solidification, 4 mm-diameter wells were punched and 6 μl peptide solution of required concentration added to each well. Plates were incubated at 37° C. for 3 h to allow peptide diffusion. The underlay gel was then covered with 15 ml of molten overlay (6% TSB and 1% Low-EEO agarose in distilled H2O). Antimicrobial activity of a peptide was visualized as a zone of clearing around each well after 18-24 h of incubation at 37° C.
Radial diffusion assay—Essentially as described earlier (23, 24), bacteria were grown to mid-logarithmic phase in 10 ml of full-strength (3% w/v) trypticase soy broth (TSB) (Becton-Dickinson). The microorganisms were then washed once with 10 mM Tris, pH 7.4. […]

RAW 264.7 macrophages = test: NO production in RAW 264.7 macrophages stimulated with LPS or other microbial products (Griess reaction); assay type: cell-based, mouse; settings: LPS from E. coli or P. aeruginosa; peptide at indicated concentrations (FIG. 41C)
Protocol: Effects of various microbial products on macrophages in vitro and anti-inflammatory effects by various peptides of HCII and TFPI. 3.5×10^5 cells were seeded in 96-well tissue culture plates (Nunc, 167008) in phenol red-free DMEM (Gibco) supplemented with 10% FBS and antibiotics. Following 6 hours of incubation to permit adherence, cells were stimulated with 10 ng/mL E. coli (0111:B4) LPS (Sigma), lipoteichoic acid, peptioglycan, or zymosan, with and without peptides at the indicated doses (se figure legends and figures). The levels of NO in culture supernatants were determined after 24 hours from stimulation using the Griess reaction. Briefly, nitrite, a stable product of NO degradation, was measured by mixing 50 μl of culture supernatants with the same volume of Griess reagent (Sigma, G4410) and reading absorbance at 550 nm after 15 min. Phenol-red free DMEM with FBS and antibiotics were used as a blank. A standard curve was prepared using 0-80 μM sodium nitrite solutions in ddH20.
LPS effects on macrophages in vitro—[…] cells were seeded in 96-well tissue culture plates (Nunc, 167008) in phenol red-free DMEM (Gibco) supplemented with 10% FBS containing 1% Anti-Anti (Invitrogen). Following 20 hours of incubation to permit adherence, cells were washed and stimulated with 10 ng/ml E. coli (0111:B4) or P. aeruginosa LPS (Sigma), with and without the peptides GGL27, GGL27(S), and DSE25 of various doses. The levels of NO in culture supernatants were determined after 24 hours from stimulation using the Griess reaction (27). Briefly, nitrite, a stable product of NO degradation, was measured by mixing 50 μl of culture supernatants with the same volume of Griess reagent (Sigma, G4410) and reading absorbance at 550 nm after 15 min. Phenol-red free DMEM with FBS and antibiotics were used as a blank. A standard curve was prepared using 0-80 μM sodium nitrite solutions in ddH20.

[3] = target: C3a (complement anaphylatoxin C3a peptides in chronic wound fibrin slough) (human) (UniProt P01024); test: double immunogold electron microscopy (C3a 10 nm, C-termini of TFPI 20 nm), evaluation of 50 bacterial profiles in wound fibrin slough
P. aeruginosa = test: Viable count analysis, P. aeruginosa; assay type: cell-based, Pseudomonas aeruginosa; settings: 20% human citrate plasma
Protocol: (§1) Viable count analysis—E. coli strains were grown to mid-logarithmic phase in Todd-Hewitt (TH). P. aeruginosa strains were grown in TH overnight. Bacteria were washed and diluted in 10 mM Tris, pH 7.4 containing 5 mM glucose. 2×10^6 cfu/ml bacteria were incubated in 50 μl, at 37° C. for 2 h with the C-terminal TFPI-derived peptides GGL27, TKR22, or LIK17 at the indicated concentrations. Additional experiments were performed in 10 mM Tris, pH 7.4, containing 0.15 M NaCl, either alone or with 20% normal or heat inactivated citrate-plasma. Serial dilutions of the incubation mixture were plated on TH agar, followed by incubation at 37° C. overnight and cfu determination.

[4] = tested on: thrombin induced fibrin network formation in normal human plasma; test: Clotting assay: thrombin clotting time (TCT); assay type: biochemical
Protocol: (§2) Clotting assays. All clotting times were measured using an Amelung coagulometer. Activated partial thromboplastin time (aPTT) was measured by incubating the peptides diluted in sterile water at the indicated concentrations, with 100 μL citrated human plasma for 1 minute followed by the addition of 100 μL aPTT reagent (aPTT Automate, Diagnostica Stago) for 60 seconds at 37° C. Clotting was initiated by the addition of 100 μL of a 25-mM CaCl2 solution. In the prothombrin time assay (PT), clotting was initiated by the addition of 100 μL Thrombomax with calcium (PT reagent; Sigma-Aldrich). For measuring the thrombin clotting time (TCT), clotting was initiated by the addition of 100 μL Accuclot thrombin time reagent (TCT reagent; Sigma-Aldrich).

[5] = tested on: intrinsic pathway of coagulation in normal human plasma; test: Clotting assay: activated partial thromboplastin time (aPTT); assay type: biochemical
Protocol: as §2

E. coli = test: Viable count analysis, E. coli; assay type: cell-based, Escherichia coli
Protocol: Viable count analysis. E. coli ATCC 25922 bacteria were grown to mid-logarithmic phase in Todd-Hewitt (TH) medium. Bacteria were washed and diluted in 10 mM Tris, pH 7.4 containing 5 mM glucose. E. coli ATCC 25922 (50 μl; 2×10^6 cfu/ml) were incubated, at 37° C. for 2 h with peptides at the indicated concentrations. Other experiments with the TFPI-peptides and LL-37 were performed in 10 mM Tris, pH 7.4, containing also 0.15 M NaCl, with normal or heat inactivated 20% citrate-plasma (PP). Serial dilutions of the incubation mixture were plated on TH agar, followed by incubation at 37° C. overnight and cfu determination.
as §1

C3a (complement anaphylatoxin C3a peptides in chronic wound fibrin slough) (human), sequence (P01024 672-748): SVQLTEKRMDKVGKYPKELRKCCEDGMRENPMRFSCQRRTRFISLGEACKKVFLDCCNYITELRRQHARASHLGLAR

Substance | antibacterial activity at physiological conditions (bacteria) | overall (proinflammatory) cytokine release [1] | survival [1] | antimicrobial activity (zones of clearance) [2] | LPS-mediated NO release (RAW 264.7 macrophages) | further results
GKRKKKGKGLGKKRDPCLRKYK (Heparin-binding growth factor derived peptide) [GKR22] | retain their antibacterial activity at physiological conditions | – | – | – | – | –
HKHGHGHGKHKNKGKKNGKH (A kininogen-derived antimicrobial peptide) [HKH20] | retain their antibacterial activity at physiological conditions | – | – | – | – | –
GGLISTSSSSSSQRVKIAYEEIFVKNM (GGL27(S) control peptide) [control peptide, central K/R residues of GGL27 replaced by S, reference compound] | – | nor significantly alter overall cytokine release | nor significantly alter overall cytokine release, as well as survival | no antimicrobial effects | did neither block NO release | –
C-terminal TFPI peptides (endogenous C-terminal fragments of tissue factor pathway inhibitor found in human chronic wound fibrin slough) (from UniProt P10646 268-304) | – | – | – | – | – | percent of TFPI-molecules associated with C3a [3]: 70%
DSEEDEEHTIITDTELPPLKLMHSF (DSE25 control peptide) [control peptide from the N-terminus of TFPI, reference compound] | – | nor significantly alter overall cytokine release | nor significantly alter overall cytokine release, as well as survival | no antimicrobial effects | did neither block NO release | –
TKRKRKKQRVKIAYEEIFVKNM [TKR22, C-terminal peptide of TFPI] | – | – | – | – | – | killing in human plasma compared with physiological buffer (P. aeruginosa): not enhanced; thrombin clotting time (TCT) [4]: not significantly affected; activated partial thromboplastin time (aPTT) [5]: impair the intrinsic pathway of coagulation; bactericidal activity in presence of human plasma (E. coli; 0.15 M NaCl, 10 mM Tris, pH 7.4 with 20% human citrate plasma, versus buffer): significantly enhanced; bactericidal activity in heat-inactivated plasma (E. coli; 20% heat-inactivated human citrate plasma): abolished the potentiation
